Here are results for 14 molecules from patent US20260216170A1, “TETRAHYDROISOQUINOLINE HETEROBIFUNCTIONAL BCL-XL DEGRADERS” (Treeline Biosciences, Inc., priority 2023, published 2026).

Where only a bound is given, the exact number is not on record here.

The target of this experiment is T1, Human BCL-XL protein (N-terminal HiBiT tagged BCL-XL expressed in HT1080 cells) (Homo sapiens, UniProt Q07817).
T1 construct: expressed in transfected cells; host or cells: HT-1080 (ATCC CCL-121), stably transduced with lentivirus pLV-UBC-N-HiBiT-BCL-XL-PGK-puro and selected with puromycin
T1 sequence (Q07817 whole entry): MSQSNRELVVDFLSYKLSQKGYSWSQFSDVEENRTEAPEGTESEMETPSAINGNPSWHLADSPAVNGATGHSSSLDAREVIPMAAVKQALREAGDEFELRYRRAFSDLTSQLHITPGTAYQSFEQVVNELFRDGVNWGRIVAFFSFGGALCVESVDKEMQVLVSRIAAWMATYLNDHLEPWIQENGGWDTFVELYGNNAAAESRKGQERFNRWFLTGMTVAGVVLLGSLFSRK
The experiment can be described thus: HiBiT Based Degradation Assay. The format is cell-based. Conditions: 24 hours incubation; for DC50: BCL-XL degradation, HT1080 cells expressing N-HiBiT-BCL-XL, normalized with DMSO control, geometric mean for multiple data points, read-out: EC50 (24 h); for Ymin (24 h): bottom of BCL-XL degradation curve (remaining HiBiT-BCL-XL signal vs DMSO control), HT1080 cells. Summed up: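 BCL-XL degradation was read as Nano-Glo HiBiT lytic luminescence relative to DMSO after a 24 h compound treatment of HT1080 cells carrying stably integrated N-HiBiT-BCL-XL. EC50 values come from four-parameter logistic curves, with the hook-curve minimum fixed as bottom, and are geometric means where tested repeatedly.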

As for `COc1c(NC(=O)CN2CCC(CCCOc3ccc(-c4ccc(N5CCc6ccnc(C(=O)Nc7nc8ccccc8s7)c6C5)nc4C(=O)O)c(C(F)(F)F)c3)CC2)ccc2c(C3CCC(=O)NC3=O)nn(C)c12` (stereo not shown) [Compound 158, 6-[8-(1,3-benzothiazol-2-ylcarbamoyl)-3,4-dihydro-1H-2,7-naphthyridin-2-yl]-3-[4-[3-[1-[2-[[3-(2,6-dioxo-3-piperidyl)-7-methoxy-1-methyl-indazol-6-yl]amino]-2-oxo-ethyl]-4-piperidyl]propoxy]-2-(trifluoromethyl)phenyl]pyridine-2-carboxylic acid], the DC50 was in the range of 10 to 100 nM and the “Ymin (24 h)” value is reported as “B (30% ≤ Ymin < 50%)”.

For `C[C@@H]1C[C@H](CCCOc2ccc(-c3ccc(N4CCc5cccc(C(=O)Nc6nc7ccccc7s6)c5C4)nc3C(=O)O)c(C(F)(F)F)c2)CCN1CC(=O)Nc1ccc2c(C3CCC(=O)NC3=O)nn(C)c2c1` (stereo partly shown) [Compound 209c], the DC50 is less than 10 nM and the “Ymin (24 h)” value was “A (Ymin < 30%)”.

In the case of `Cc1cc(O[C@H](C)CCC2CCN(CC(=O)Nc3ccc4c(C5CCC(=O)NC5=O)nn(C)c4n3)CC2)ccc1-c1ccc(N2CCc3cccc(C(=O)Nc4nc5ccccc5s4)c3C2)nc1C(=O)O` (single isomer, unassigned) [Compound 225b], the DC50 fell in the range of 10 to 100 nM and the “Ymin (24 h)” value was “B (30% ≤ Ymin < 50%)”.

For the molecule `COc1c(NC(=O)CN2CCC(CCCOc3cccc(-c4ccc(N5CCc6cccc(C(=O)Nc7nc8ccccc8s7)c6C5)nc4C(=O)O)c3F)CC2)ccc2c(C3CCC(=O)NC3=O)nn(C)c12` (stereo not shown) [Compound 200], the DC50 lay within 10 to 100 nM and the “Ymin (24 h)” value is reported as “B (30% ≤ Ymin < 50%)”.

Turning to `Cc1c(OCCCC2CCN(CC(=O)Nc3ccc4c(C5CCC(=O)NC5=O)nn(C)c4c3)CC2)cccc1-c1ccc(N2CCc3ccnc(C(=O)Nc4nc5ccccc5s4)c3C2)nc1C(=O)O` (stereo not shown) [Compound 106, 6-(8-(benzo[d]thiazol-2-ylcarbamoyl)-3,4-dihydro-2,7-naphthyridin-2(1H)-yl)-3-(3-(3-(1-(2-((3-(2,6-dioxopiperidin-3-yl)-1-methyl-1H-indazol-6-yl)amino)-2-oxoethyl)piperidin-4-yl)propoxy)-2-methylphenyl)picolinic acid], the DC50 was in the range of 10 to 100 nM and the “Ymin (24 h)” value is reported as “B (30% ≤ Ymin < 50%)”.

In the case of `Cc1cc(OC2CC3(CCN(CC(=O)Nc4ccc5c(C6CCC(=O)NC6=O)nn(C)c5c4F)CC3)C2)ccc1-c1ccc(N2CCc3ccnc(C(=O)Nc4nc5ccccc5s4)c3C2)nc1C(=O)O` (stereo not shown) [Compound 205], the DC50 was less than 10 nM and the “Ymin (24 h)” value is reported as “A (Ymin < 30%)”.

For the molecule `COc1c(NC(=O)CN2CCC3(CC2)CC(Oc2cccc(-c4ccc(N5CCc6ccnc(C(=O)Nc7nc8ccccc8s7)c6C5)nc4C(=O)O)c2C(F)(F)F)C3)ccc2c(C3CCC(=O)NC3=O)nn(C)c12` (stereo not shown) [Compound 165, 6-(8-(benzo[d]thiazol-2-ylcarbamoyl)-3,4-dihydro-2,7-naphthyridin-2(1H)-yl)-3-(3-((7-(2-((3-(2,6-dioxopiperidin-3-yl)-7-methoxy-1-methyl-1H-indazol-6-yl)amino)-2-oxoethyl)-7-azaspiro[3.5]nonan-2-yl)oxy)-2-(trifluoromethyl)phenyl)picolinic acid], the DC50 was less than 10 nM and the “Ymin (24 h)” value is “B (30% ≤ Ymin < 50%)”.

For `Cn1nc(C2CCC(=O)NC2=O)c2ccc(NC(=O)CN3CCC(CCCOc4ccc(-c5ccc(N6CCc7cccc(C(=O)Nc8nc9ccccc9s8)c7C6)nc5C(=O)O)c(F)c4)CC3)cc21` (stereo not shown) [Compound 199], the DC50 was less than 10 nM and the “Ymin (24 h)” value is recorded as “A (Ymin < 30%)”.

Consider `Cc1c(OCCC2CC3(CCN(CC(=O)Nc4ccc5c(C6CCC(=O)NC6=O)nn(C)c5c4)CC3)C2)cccc1-c1ccc(N2CCc3cccc(C(=O)Nc4nc5ccccc5s4)c3C2)nc1C(=O)O` (stereo not shown) [Compound 114, 6-(8-(benzo[d]thiazol-2-ylcarbamoyl)-3,4-dihydroisoquinolin-2(1H)-yl)-3-(3-(2-(7-(2-((3-(2,6-dioxopiperidin-3-yl)-1-methyl-1H-indazol-6-yl)amino)-2-oxoethyl)-7-azaspiro[3.5]nonan-2-yl)ethoxy)-2-methylphenyl)picolinic acid], for which the DC50 was 10 to 100 nM and the “Ymin (24 h)” value is listed as “B (30% ≤ Ymin < 50%)”.

`C[C@H]1C[C@@H](CCCOc2ccc(-c3ccc(N4CCc5cccc(C(=O)Nc6nc7ccccc7s6)c5C4)nc3C(=O)O)c(C(F)(F)F)c2)CCN1CC(=O)Nc1ccc2c(C3CCC(=O)NC3=O)nn(C)c2c1` (stereo partly drawn) [Compound 209a, 6-(8-(benzo[d]thiazol-2-ylcarbamoyl)-3,4-dihydroisoquinolin-2(1H)-yl)-3-(4-(3-((2S,4S)-1-(2-((3-(2,6-dioxopiperidin-3-yl)-1-methyl-1H-indazol-6-yl)amino)-2-oxoethyl)-2-methylpiperidin-4-yl)propoxy)-2-(trifluoromethyl)phenyl)picolinic acid]: the DC50 was 10 to 100 nM and the “Ymin (24 h)” value is recorded as “A (Ymin < 30%)”.

Consider `Cc1c(OC2CC3(CCN(CC(=O)Nc4ccc5c(C6CCC(=O)NC6=O)nn(C)c5c4)CC3)C2)cccc1-c1ccc(N2CCc3ccnc(C(=O)Nc4nc5ccccc5s4)c3C2)nc1C(=O)O` (stereo not shown) [Compound 163, 6-[8-(1,3-benzothiazol-2-ylcarbamoyl)-3,4-dihydro-1H-2,7-naphthyridin-2-yl]-3-[3-[[7-[2-[[3-(2,6-dioxo-3-piperidyl)-1-methyl-indazol-6-yl]amino]-2-oxo-ethyl]-7-azaspiro[3.5]nonan-2-yl]oxy]-2-methyl-phenyl]pyridine-2-carboxylic acid], for which the DC50 was less than 10 nM and the “Ymin (24 h)” value was “B (30% ≤ Ymin < 50%)”.

Consider `Cc1cc(OCCC[C@@H]2CCN(CC(=O)Nc3ccc4c(C5CCC(=O)NC5=O)nn(C)c4c3)[C@@H](C)C2)ccc1-c1ccc(N2CCc3ccnc(C(=O)Nc4nc5ccccc5s4)c3C2)nc1C(=O)O` (stereo partly shown) [Compound 219a], for which the DC50 was less than 10 nM and the “Ymin (24 h)” value is “A (Ymin < 30%)”.

Consider `COc1c(NC(=O)CN2CCC3(CC2)CC(COc2ccc(-c4ccc(N5CCc6ccnc(C(=O)Nc7nc8ccccc8s7)c6C5)nc4C(=O)O)c(C(F)(F)F)c2)C3)ccc2c(C3CCC(=O)NC3=O)nn(C)c12` (stereo not shown) [Compound 181, 6-[8-(1,3-benzothiazol-2-ylcarbamoyl)-3,4-dihydro-1H-2,7-naphthyridin-2-yl]-3-[4-[[7-[2-[[3-(2,6-dioxo-3-piperidyl)-7-methoxy-1-methyl-indazol-6-yl]amino]-2-oxo-ethyl]-7-azaspiro[3.5]nonan-2-yl]methoxy]-2-(trifluoromethyl)phenyl]pyridine-2-carboxylic acid], for which the DC50 is 10 to 100 nM and the “Ymin (24 h)” value is reported as “B (30% ≤ Ymin < 50%)”.

For `Cc1cc(OCCCC2CCN(CCNc3ccc4c(C5CCC(=O)NC5=O)nn(C)c4c3)CC2)ccc1-c1ccc(N2CCc3cccc(C(=O)Nc4nc5ccccc5s4)c3C2)nc1C(=O)O` (stereo not shown) [Compound 179, 6-(8-(benzo[d]thiazol-2-ylcarbamoyl)-3,4-dihydroisoquinolin-2(1H)-yl)-3-(4-(3-(1-(2-((3-(2,6-dioxopiperidin-3-yl)-1-methyl-1H-indazol-6-yl)amino)ethyl)piperidin-4-yl)propoxy)-2-methylphenyl)picolinic acid], the DC50 was less than 10 nM and the “Ymin (24 h)” value is “A (Ymin < 30%)”.
